Experiments:
IDH mutant tumors = experiment: Flow cytometry of tumor-infiltrating lymphocytes (TILs); type: in vivo; conditions: IDH mutant tumor-bearing mice, vs DMSO-treated controls
Method: Flow cytometry for TILs. IDH WT and mutant tumors were dissociated to form a single cell suspension (SCS). The SCS was then overlaid onto sucrose gradient (Lympholyte-M) and centrifuged at 2400 rpm for 20 minutes. Immune cells at the interphase of the 2 liquids were collected and washed once with PBS. The cells were then stained with appropriate antibodies and acquired on a BD LSR Fortessa flow cytometer. Briefly, cells were washed with PBS and stained with 1 μg antibody for 30 minutes at 4° C. After incubation, the cells were washed three times with FACS buffer (PBS+10% FBS+0.1% Na-azide), resuspended in a final volume of 200 μl of FACS buffer and run through the flow cytometer. Flow cytometry data was analyzed on the Flowjo® v9.1 software. Antibodies used for flow cytometry were as follows: CD45- PE-Cy7, NKp46-FITC, CD11b-APC-Cy7, Gr-1-APC, F4/80-eFluor450, Ly6-c-PerCP-Cy5.5 and CD11c-PE.
(§1) ATRA promotes tumor stasis in IDH mutant tumor-bearing mice. To determine the value of ATRA as a therapeutic modality, its anti-tumor efficacy in vivo was evaluated. Athymic nude mice were implanted with 10^6 IDH mutant or WT primary glioma cells in the flank. 21 days after tumor inoculation (when tumors were about 25 mm^2), 10 mg/kg ATRA was administered every other day for 21 days. Tumors were measured every 3 days. […] Resected tumors from ATRA or DMSO-treated mice were digested to obtain single cell suspensions and assessed for killing by human and mouse NK cells ex vivo.

[1] = test system: IDH mutant cells from primary gliomas; experiment: Gene microarray (Clariom S) and pathway analysis; type: cell-based, human
Method: To evaluate overall gene expression changes and to decipher pathway activation in IDH mutants after ATRA treatment, a gene microarray was performed. IDH wt and mutant cells from primary gliomas were treated with 1 μM ATRA for 48 hours and RNA was extracted from the cells. Microarray analysis was performed using Clariom S microarray chips.

[2] = test system: IDH MUT (IDH1 R132H) tumors; experiment: CCL2 neutralization in ATRA-treated tumor-bearing mice; type: in vivo; conditions: 10 mg/kg ATRA every alternate day, 1 μg anti-CCL2 neutralizing antibody
Method: IDH WT and MUT (IDH1 R132H) tumor-bearing mice were treated with 10 mg/kg ATRA every alternate day starting on day 18 after tumor inoculation. Mice were also injected with 1 μg anti-CCL2 neutralizing antibody (or anti isotype antibody) on the 1st day of ATRA treatment.

[3] = test system: NKG2D ligands in IDH mutant cells; experiment: qPCR of NKG2D ligand expression in ATRA-treated glioma cells; type: cell-based, human; conditions: 1 μM ATRA 48 hours, vs DMSO-treated cells
Method: All-trans Retinoic acid (ATRA) treatment of astrocytes and primary glioma cells. ATRA was purchased from Sigma Aldrich® and reconstituted in DMSO. ATRA was added at a 1 μM final concentration to cell culture medium for 48 hours. After treatment, the cells either lysed in Trizol™ for qPCR analysis, or were used in NK cytotoxicity assays.
Quantitative Real time RT-PCR. 5×10^5 IDH mutant and WT astrocytes, as well as patient glioma cells were lyzed in Trizol and RNA was extracted from the cells using the Chloroform extraction method. cDNA was transcribed from the RNA using iScript cDNA synthesis kit (BioRad). Real-time PCR was performed on an CFX96 Touch™ Real-Time PCR Detection System (Bio-Rad) equipped with a 96-well reaction plate. Briefly, 2 μL cDNA was added to 5 μL of the 2×SYBR Green PCR mastermix (Thermo Scientific), 800 nM of each primer, and water was added to 10 μL. The thermal denaturation protocol was run at the end of the PCR to determine the number of products that were present in the reaction. Reactions were typically run in triplicates. The cycle number at which the reaction crossed an arbitrarily-placed threshold (CT) was determined for each gene and the relative amount of each gene to 18 S rRNA was described using the equation 2^−ΔCT where ΔCT=(CTtargetRNA−CT18S rRNA).
ATRA induced increased cytotoxic killing of IDH mutant cells in an NKG2D-ligand dependent manner. The ability of ATRA to sensitize IDH mutant cells to killing by NK cells was evaluated. For this purpose, IDH mutant and WT cells were treated with 1 μM ATRA for 48 hours and assessed for killing by NK-92 cells (ATCC) at a 10:1 E:T ratio. […] Also, as observed in vivo, increased NK-92 killing in IDH mutant cells was dependent upon NKG2D engagement. […] ATRA-treated cells were also evaluated for expression of NKG2D ligands.

[4] = test system: ATRA-treated IDH mutant tumors; experiment: Ex vivo NK killing of resected tumors; type: cell-based, mice; conditions: vs DMSO-treated control tumors
Method: as §1

[5] = test system: CCL2 and CXCL12 in IDH mutant cells; experiment: Chemokine array on culture supernatants; type: cell-based, human
Method: ATRA increases chemotaxis towards IDH mutant cells in a CCL2-dependent manner. […] To confirm these findings, chemotaxis assays were performed in vitro. ATRA-treated IDH mutant or WT cells were plated in the bottom well of a transwell. Different immune cell subsets (as indicated) were placed in the top chamber at a 10:1 E:T ratio. After 48 hours, cells from the bottom chamber were harvested and analyzed by flow cytometry. […] To evaluate the mechanisms of changes in chemotaxis induced by ATRA, a chemokine array was performed. Supernatants from ATRA- (or DMSO)-treated WT and IDH mutant cultures were used to assess changes in chemokine expression using a chemokine array kit (R&D systems). Results were interpreted visually as well as quantified using an imaging software (ImageJ). […] To substantiate the role of CCL2 in NK and T cell chemotaxis, transwell assays were repeated as described earlier, in the presence of CCL2-blocking antibody (R&D systems).

## CC1=C(/C=C/C(C)=C/C=C/C(C)=C/C(=O)O)C(C)(C)CCC1 [ATRA, all-trans retinoic acid]
IDH mutant tumors
  MDSCs and monocytes in TILs: lower MDSCs and monocytes
  NKs in TILs: higher number
  infiltration of immune cells overall (TILs): higher infiltration of immune cells overall
  macrophages in TILs: higher number of macrophages
[1]; 1 μM ATRA 48 hours (data not shown)
  gene expression of inflammatory chemokines CXCL1, CXCL9 and CXCL10: upregulated the gene expression of multiple inflammatory chemokines
[1]; IDH mutant cells, 1 μM ATRA 48 hours
  pathway analysis of upregulated genes: immune cell chemotaxis was one of the most upregulated pathways
[2]
  tumor stasis with CCL2 blockade: CCL2 blockade reversed ATRA-mediated tumor stasis
[3]
  expression of NKG2D ligand MICA: increased expression
  expression of NKG2D ligand MICB: increased expression
  expression of NKG2D ligand ULBP1: increased expression
  expression of NKG2D ligand ULBP3: increased expression
[4]
  ex vivo killing by human natural killer cells: more susceptible to killing
  ex vivo killing by mouse natural killer cells: more susceptible to killing
[5]; ATRA-treated IDH mutant cells vs DMSO-treated controls
  levels of CXCL12: lower levels of CXCL12
[5]; supernatants of ATRA- or DMSO-treated WT and IDH mutant cultures
  CCL2 production: CCL2 production was only observed in ATRA treated IDH mutant cells
